Data on one molecule can be found in patent publication US9708370B2, “Azapeptides as CD36 binding compounds” (VALORISATION-RECHERCHE, LIMITED PARTNERSHIP, priority 2007, dated 2017).

The test system of assay [1] is laser injury induced choroidal neovascularisation. The assay can be described thus: Inhibition of choroidal neovascularisation in vivo, laser injury model. More on the design: species or system mice. The source says:
The standard model of choroidal neovascularisation is the laser injury induced neovascularisation (47). In this model, which is applicable to rodents and primates, a laser beam is used to disrupt the RPE and the Bruchs membrane that separates the choroidal vasculature from the subretinal space. The following local inflammatory reaction in deep retina and choroid leads to a localized subretinal neovascularisation in a similar manner as that observed in AMD. This local neovascularisation can be quantified on flatmounts of RPE/choroid/sclera. The antiangiogenic effect of DBG178 on subretinal neovascularisation was tested by injecting intravitreally at effective concentration of 10^−7 to 10^−6 M within the eye and compared to that of intravitreal injection of saline used as a control.
Ten-week old C56/Bl6+/+ and CD36 null mice of C57Bl/6 background were anesthetized by intramuscular injection of ketamine (50 mg/kg) and xylazine (10 mg/kg). Pupils were fully dilated with 1% tropicamide. Coverslips positioned on the mouse cornea were used as a contact glass. Laser-coagulations were performed 1 to 2 disc diameters away from the papillae using an Argon laser (532 nm) mounted on a slit lamp (400 mW, 50 ms and 50 μm). […] The RPE/choroids were radially incised, flatmounted and viewed using a fluorescence microscope (BX51; Olympus). CNV were measured on photographs using Scion image analysis software.

The target in a further assay is human GHS-R1a (Homo sapiens (Human), UniProt Q92847). Put plainly: GHS-R1a binding assay, competition with 125I-ghrelin on membranes of LLC-PK1 cells expressing human GHS-R1a.
Sequence of human GHS-R1a (Q92847 whole entry): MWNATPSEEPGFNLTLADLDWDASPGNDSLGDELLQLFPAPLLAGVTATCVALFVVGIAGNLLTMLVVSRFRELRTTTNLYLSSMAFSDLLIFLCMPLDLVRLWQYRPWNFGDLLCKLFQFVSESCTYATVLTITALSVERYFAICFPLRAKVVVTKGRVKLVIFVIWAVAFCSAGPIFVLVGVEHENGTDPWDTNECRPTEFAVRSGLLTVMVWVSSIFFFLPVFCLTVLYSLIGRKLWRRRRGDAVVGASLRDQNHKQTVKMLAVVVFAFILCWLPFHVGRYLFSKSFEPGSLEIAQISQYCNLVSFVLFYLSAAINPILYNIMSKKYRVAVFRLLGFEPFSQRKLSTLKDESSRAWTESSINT

Starred links: 1 amine or outer side, 2 acyl side, 3 side chain; linkers in the order of their positions; H or OH if unused. Non-standard residues stand in square brackets, D forms with d. Residues, ends and D or L forms follow the SMILES beside them. azaTyr = O=C(N(Cc1ccc(O)cc1)N[*:1])[*:2]

For the molecule `C[C@H](NC(=O)[C@@H](Cc1c[nH]c2ccccc12)NC(=O)[C@@H](N)Cc1cnc[nH]1)C(=O)NN(Cc1ccc(O)cc1)C(=O)N[C@H](Cc1ccccc1)C(=O)N[C@@H](CCCCN)C(N)=O` [DBG178p, His-D-Trp-Ala-azaTyr-D-Phe-Lys-NH2] (H-H[dW]A[azaTyr][dF]K-NH2), the “inhibition of the neovascular response” value in assay [1] (C57BL/6 mice, intravitreal injection 3 and 7 days after laser injury, 10^−7 and 10^−6 M within the eye) is listed as “more than 50%”. For the same molecule, the “effect on the neovascular response” value in assay [1] (eye of CD36 null mice, intravitreal injection) is given as “no effect”. At human GHS-R1a (Table 4, LLCPK-1 membranes overexpressing GHS-R1a, radioiodinated (1-28) rat ghrelin as tracer, read-out: EC50 (text: IC50 values from competition curves in GHS-R1a radioreceptor assay)), the IC50 was 15.7 µM. In addition, the “binding affinity for GHS-R1a receptor in words” value at human GHS-R1a (compared with GHRP-6) is “reducing the binding affinity”.
